Consider eleven compounds from ChEMBL document CHEMBL1201862, “PubChem BioAssay data set” (2004).

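A five-concentration, 48-hour dose response in 96-well plates underlies each endpoint, interpolated linearly between surrounding concentrations. GI50 marks 50% less growth.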 The source made the active and inactive calls. No stated cut-off is given here; in the data, active = GI50 up to about 1.1 µM and inactive = higher.

Assay in all cases: NCI anticancer screen, dose series, 48 h
Assay [1] deals with A549.
Assay [2] has as its system COLO 205.
The test system of assay [3] is HCC 2998.
In assay [4] the test system is HCT-116.
For assay [5], the system named is HL-60.
Assay [6] has as its system HOP-62.
The test system of assay [7] is HOP-92.
In assay [8] the test system is NCI-H522.
The test system of assay [9] is OVCAR-4.
Assay [10] deals with RPMI-8226.
For assay [11], the system named is SF-268.
In assay [12] the test system is SF-295.
The test system of assay [13] is SNB-75.
For assay [14], the system named is SR.
For assay [15], the system named is SW-620.
Assay [16] relates to UACC-62.
The test system of assay [17] is UO-31.
Assay [18] relates to NCI/ADR-RES.
In assay [19] the test system is OVCAR-5.
Assay [20] deals with SK-MEL-2.

As to `COC1/C=C/C=C(/C)Cc2cc(O)c(Cl)c(c2)N(C)C(=O)CC(OC(=O)C(C)C)C2(C)OC2C(C)C2CC1(O)NC(=O)O2` (stereo not drawn), the GI50 in assay [1] is < 0.01 µM (active); in assay [2], < 0.01 µM (active); in assay [3] it was < 0.01 µM (active); in [4], < 0.01 µM (active); in assay [5] it was < 0.01 µM (active); in [6], 0.0673 µM (active). For the same compound, the GI50 was 64.9 µM (inactive) in assay [7]; < 0.01 µM (active) in assay [8]; < 0.01 µM (active) in assay [9]; < 0.01 µM (active) in [10]; < 0.01 µM (active) in assay [11]; < 0.01 µM (active) in [12]. In addition, the GI50 in assay [13], in [14], in assay [15], in assay [16] and in [17] was < 0.01 µM (active) each time.

`c1ccc2cc3c(cc2c1)OP1(Oc2cccc4cccnc24)(O3)Oc2cc3ccccc3cc2O1`: the GI50 in [1] was 5.9 µM (inactive); in [2], 6.32 µM (inactive); in [3], 8.59 µM (inactive); in assay [4] it was 3.24 µM (inactive); in assay [5], 1.63 µM (inactive); in assay [6], 21 µM (inactive). Further, the GI50 in [7] was 3.57 µM (inactive); in assay [8] it was 2.39 µM (inactive); in assay [18] it was 1.28 µM (inactive); in assay [9], 3.61 µM (inactive); in assay [19], 4.43 µM (inactive); in assay [10], 1.07 µM (active). Moreover, the GI50 was 4.81 µM (inactive) in assay [11]; 4.67 µM (inactive) in assay [12]; 7.66 µM (inactive) in assay [20]; 18.6 µM (inactive) in assay [13]; 2.81 µM (inactive) in [15]; 3.05 µM (inactive) in assay [16]. In addition, the GI50 in assay [17] was 5.01 µM (inactive).

For `CC(C)N/C(N)=N/C#N`, the GI50 in assay [1], in [2], in assay [3], in assay [4], in [5] and in assay [6] was > 100 µM (inactive) in each case. For the same compound, the GI50 in assay [8], in assay [9], in [19], in assay [10], in [11] and in assay [12] was > 100 µM (inactive) in each case. Besides, the GI50 in [20], in [13], in assay [15], in assay [16] and in assay [17] was > 100 µM (inactive) in each case.

As to `CCOC(=O)C[n+]1ccc2c([nH]c3cc(OC)ccc32)c1C`, the GI50 in [1] is > 100 µM (inactive); in assay [2], > 71.6 µM (inactive); in [3], > 100 µM (inactive); in [4], 61 µM (inactive); in [5], > 75.7 µM (inactive); in [6], > 78.3 µM (inactive). For the same compound, the GI50 in [7] was > 70.3 µM (inactive); in assay [8], 68.2 µM (inactive); in [18], > 100 µM (inactive); in [9] it was > 100 µM (inactive); in assay [19], > 100 µM (inactive); in [10], > 100 µM (inactive). Further, the GI50 is > 100 µM (inactive) in assay [11]; 69.2 µM (inactive) in [12]; > 100 µM (inactive) in assay [20]; > 100 µM (inactive) in assay [13]; > 100 µM (inactive) in assay [15]; > 100 µM (inactive) in assay [16]. In [17], the GI50 was > 39.4 µM (inactive).

As to `C/C(=C\C(=O)Nc1ccc2[nH]nnc2c1)Nc1ccc2[nH]nnc2c1`, the GI50 in assay [1], in assay [2], in assay [3], in [4], in assay [5] and in assay [6] was > 100 µM (inactive) each time. Besides, the GI50 in assay [7], in assay [8], in [9], in [19], in assay [10] and in assay [11] was > 100 µM (inactive) throughout. The GI50 in [12], in assay [13], in assay [14], in assay [15], in assay [16] and in assay [17] was > 100 µM (inactive) throughout.

As for `O=[N+]([O-])c1cnccc1-n1nnc2ccccc21`, the GI50 in [1] is 25.1 µM (inactive); in [2] it was 17.9 µM (inactive); in assay [3] it was 19.7 µM (inactive); in assay [4], 24.4 µM (inactive); in assay [5], 16 µM (inactive); in assay [6], 25.1 µM (inactive). In addition, the GI50 in [7] is 18.8 µM (inactive); in assay [8] it was 16 µM (inactive); in assay [18], 20.2 µM (inactive); in assay [9] it was 15.3 µM (inactive); in assay [19], 32.1 µM (inactive); in assay [10], 32.9 µM (inactive). The GI50 in assay [11] was 18.8 µM (inactive); in assay [12], 20.2 µM (inactive); in [20] it was 16.5 µM (inactive); in [13], 15.2 µM (inactive); in [15] it was 24.3 µM (inactive); in [16] it was 13.8 µM (inactive). Besides, the GI50 in [17] was 19.4 µM (inactive).

As for `Cc1ccccc1NC(=O)C(=O)C(C1OC(=O)c2ccccc21)[N+](=O)[O-]` (stereo not drawn), the GI50 in assay [1], in assay [2], in assay [3], in [4], in assay [5] and in assay [6] was > 100 µM (inactive) throughout. For the same compound, the GI50 in [7] was > 100 µM (inactive); in [8], 56.9 µM (inactive); in assay [9], > 100 µM (inactive); in assay [19], > 100 µM (inactive); in assay [10], > 100 µM (inactive); in [11], > 100 µM (inactive). The GI50 in assay [12], in assay [20], in assay [13], in assay [14], in assay [15] and in assay [16] was > 100 µM (inactive) in each case. In assay [17], the GI50 was > 100 µM (inactive).

Regarding `O=C1OCc2cccc3c2-c2c1cccc2C(=O)OC3`, the GI50 in [2] was > 100 µM (inactive); in [3], > 100 µM (inactive); in assay [4], > 100 µM (inactive); in assay [5] it was > 100 µM (inactive); in assay [6], > 100 µM (inactive); in [7] it was 38.5 µM (inactive). For the same compound, the GI50 in assay [9], in assay [10], in [11], in assay [12], in assay [20] and in [14] was > 100 µM (inactive) each time. The GI50 in [16] and in [17] was > 100 µM (inactive) in each case.

Consider `S=C(NCCCCCCNC(=S)Nc1c2ccccc2nc2ccccc12)Nc1c2ccccc2nc2ccccc12`, for which the GI50 in assay [1] is 87.5 µM (inactive); in assay [2], 50.5 µM (inactive); in [3], > 96.2 µM (inactive); in assay [4] it was 50.6 µM (inactive); in [5], 77.1 µM (inactive); in [6], > 89.3 µM (inactive). For the same compound, the GI50 in [7] is 52.4 µM (inactive); in [8], 64.6 µM (inactive); in assay [18], > 88.1 µM (inactive); in assay [9], 70 µM (inactive); in assay [19], > 84.1 µM (inactive); in [10] it was 95.5 µM (inactive). Also, the GI50 in assay [11] was > 100 µM (inactive); in [12], 68.4 µM (inactive); in [20], > 100 µM (inactive); in assay [13] it was 32.9 µM (inactive); in assay [15], 52.8 µM (inactive); in [16], > 100 µM (inactive). In assay [17], the GI50 was > 86.3 µM (inactive).

On to `CSCSCC(N)CO.Cc1[nH]c(=O)[nH]c(=O)c1/C=C/C(=O)O`, for which the GI50 in [1], in [2], in assay [3], in assay [4], in assay [5] and in [6] was > 625 µM (inactive) throughout. Moreover, the GI50 was 583 µM (inactive) in assay [7]; > 625 µM (inactive) in [8]; > 625 µM (inactive) in [18]; > 625 µM (inactive) in assay [9]; > 625 µM (inactive) in assay [19]; > 625 µM (inactive) in assay [10]. For the same compound, the GI50 in assay [11] was > 625 µM (inactive); in assay [12], 582 µM (inactive); in assay [20], > 625 µM (inactive); in assay [13], 447 µM (inactive); in assay [15], > 625 µM (inactive); in assay [16], > 625 µM (inactive). For the same compound, the GI50 in [17] was > 625 µM (inactive).

As to `C=CC1(NC(=O)c2ccccc2)CCC(C(C)(C)C)CC1` (stereo not drawn), the GI50 in [1] was 30.5 µM (inactive); in [2] it was 21.7 µM (inactive); in [3], 36.7 µM (inactive); in [4] it was 22.8 µM (inactive); in [5], 14.4 µM (inactive); in [6], 35.8 µM (inactive). Also, the GI50 in assay [8] was 30.8 µM (inactive); in assay [18], 19.6 µM (inactive); in [9], 27.7 µM (inactive); in assay [19], 28.1 µM (inactive); in assay [10] it was 20.9 µM (inactive); in assay [11], 43.2 µM (inactive). The GI50 in assay [12] is 7.26 µM (inactive); in [20], 25.2 µM (inactive); in assay [13] it was 31.5 µM (inactive); in assay [15], 35.3 µM (inactive); in [16] it was 26.6 µM (inactive); in [17] it was 22 µM (inactive).
